# Reference: US9346798B2, “Dihydrobenzoxazine and tetrahydroquinoxaline sodium channel inhibitors” (AMGEN INC., priority 2012, dated 2016)
# Columns and labels:
# Type in all cases: cell-based
# [1] = target: T1, Nav 1.7 (Homo sapiens (Human), UniProt Q15858); experiment: Nav 1.7 in vitro assay, IonWorks Quattro (IWQ) population patch-clamp; conditions: HEK 293 cells stably transfected with Nav 1.7; 26th pulse to -20 mV
# [2] = target: T1, Nav 1.7; experiment: Nav 1.7 in vitro PX assay, PatchXpress whole cell voltage clamp; conditions: HEK 293 cells stably transfected with human Nav1.7; partially inactivated state (20 to 50% inactivation)
# Summary of the method: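 HEK293 cells stably expressing human Nav1.7, whole-cell voltage clamp at a holding potential giving 20–50% inactivation; currents elicited by 20 msec pulses to −10 mV at 0.1 Hz.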
# [3] = target: Nav 1.5 (Homo sapiens (Human), UniProt Q14524); experiment: Nav 1.5 in vitro assay, IonWorks Quattro (IWQ) population patch-clamp; conditions: HEK 293 cells stably transfected with Nav 1.5; 26th pulse to -20 mV
# Chain of Nav 1.5 (Q14524 whole entry): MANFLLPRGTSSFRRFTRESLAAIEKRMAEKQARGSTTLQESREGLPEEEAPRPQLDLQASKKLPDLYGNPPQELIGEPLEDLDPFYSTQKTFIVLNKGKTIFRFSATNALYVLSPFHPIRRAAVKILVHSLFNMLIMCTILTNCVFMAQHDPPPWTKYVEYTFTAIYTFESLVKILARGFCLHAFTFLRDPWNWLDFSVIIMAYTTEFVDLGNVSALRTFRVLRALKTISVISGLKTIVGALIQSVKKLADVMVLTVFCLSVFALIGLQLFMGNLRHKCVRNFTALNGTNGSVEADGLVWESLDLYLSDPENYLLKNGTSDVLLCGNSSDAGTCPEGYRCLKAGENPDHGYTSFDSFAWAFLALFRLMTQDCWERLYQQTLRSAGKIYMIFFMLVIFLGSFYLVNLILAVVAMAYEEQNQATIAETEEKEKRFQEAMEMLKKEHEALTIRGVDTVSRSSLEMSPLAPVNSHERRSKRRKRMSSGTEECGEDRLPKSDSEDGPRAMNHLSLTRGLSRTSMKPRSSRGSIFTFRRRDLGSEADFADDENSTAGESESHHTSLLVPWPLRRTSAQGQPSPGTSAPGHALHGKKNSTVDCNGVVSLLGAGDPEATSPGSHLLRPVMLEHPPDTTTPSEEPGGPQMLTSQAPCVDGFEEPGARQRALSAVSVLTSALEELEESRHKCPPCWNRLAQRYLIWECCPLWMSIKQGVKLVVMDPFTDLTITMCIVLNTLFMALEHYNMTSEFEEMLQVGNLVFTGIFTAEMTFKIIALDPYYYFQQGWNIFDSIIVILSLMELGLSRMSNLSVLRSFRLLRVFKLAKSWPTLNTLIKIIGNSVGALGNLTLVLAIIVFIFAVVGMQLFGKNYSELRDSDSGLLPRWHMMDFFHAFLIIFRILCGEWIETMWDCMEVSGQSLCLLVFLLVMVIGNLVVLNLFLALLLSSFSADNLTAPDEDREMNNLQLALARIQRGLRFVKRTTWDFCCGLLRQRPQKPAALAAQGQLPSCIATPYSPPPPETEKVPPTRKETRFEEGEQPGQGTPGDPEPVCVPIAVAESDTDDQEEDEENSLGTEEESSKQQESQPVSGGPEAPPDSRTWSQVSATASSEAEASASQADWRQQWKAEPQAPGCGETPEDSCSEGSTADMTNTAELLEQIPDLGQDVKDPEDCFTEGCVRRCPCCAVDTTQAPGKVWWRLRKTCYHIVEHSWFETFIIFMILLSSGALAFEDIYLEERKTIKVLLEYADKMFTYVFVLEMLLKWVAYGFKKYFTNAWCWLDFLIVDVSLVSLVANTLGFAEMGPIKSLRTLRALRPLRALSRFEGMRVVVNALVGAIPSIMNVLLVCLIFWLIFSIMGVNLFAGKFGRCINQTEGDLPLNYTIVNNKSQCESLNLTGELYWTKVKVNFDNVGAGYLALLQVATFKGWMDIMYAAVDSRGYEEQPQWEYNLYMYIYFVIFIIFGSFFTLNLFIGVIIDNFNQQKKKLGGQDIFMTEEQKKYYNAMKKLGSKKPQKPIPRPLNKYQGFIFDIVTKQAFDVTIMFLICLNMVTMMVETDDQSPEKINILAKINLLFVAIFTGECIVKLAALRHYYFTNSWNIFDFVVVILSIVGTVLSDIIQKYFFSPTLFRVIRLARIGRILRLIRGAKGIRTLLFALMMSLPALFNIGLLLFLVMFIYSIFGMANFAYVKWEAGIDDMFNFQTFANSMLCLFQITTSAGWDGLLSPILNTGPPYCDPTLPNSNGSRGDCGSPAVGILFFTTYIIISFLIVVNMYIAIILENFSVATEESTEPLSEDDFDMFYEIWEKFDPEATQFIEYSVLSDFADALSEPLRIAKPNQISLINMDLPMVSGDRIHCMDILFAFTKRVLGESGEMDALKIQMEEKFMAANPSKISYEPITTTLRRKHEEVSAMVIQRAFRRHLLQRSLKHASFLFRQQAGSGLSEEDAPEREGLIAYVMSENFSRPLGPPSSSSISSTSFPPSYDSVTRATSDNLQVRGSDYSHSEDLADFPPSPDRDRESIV
# T1 sequence (Q15858 whole entry): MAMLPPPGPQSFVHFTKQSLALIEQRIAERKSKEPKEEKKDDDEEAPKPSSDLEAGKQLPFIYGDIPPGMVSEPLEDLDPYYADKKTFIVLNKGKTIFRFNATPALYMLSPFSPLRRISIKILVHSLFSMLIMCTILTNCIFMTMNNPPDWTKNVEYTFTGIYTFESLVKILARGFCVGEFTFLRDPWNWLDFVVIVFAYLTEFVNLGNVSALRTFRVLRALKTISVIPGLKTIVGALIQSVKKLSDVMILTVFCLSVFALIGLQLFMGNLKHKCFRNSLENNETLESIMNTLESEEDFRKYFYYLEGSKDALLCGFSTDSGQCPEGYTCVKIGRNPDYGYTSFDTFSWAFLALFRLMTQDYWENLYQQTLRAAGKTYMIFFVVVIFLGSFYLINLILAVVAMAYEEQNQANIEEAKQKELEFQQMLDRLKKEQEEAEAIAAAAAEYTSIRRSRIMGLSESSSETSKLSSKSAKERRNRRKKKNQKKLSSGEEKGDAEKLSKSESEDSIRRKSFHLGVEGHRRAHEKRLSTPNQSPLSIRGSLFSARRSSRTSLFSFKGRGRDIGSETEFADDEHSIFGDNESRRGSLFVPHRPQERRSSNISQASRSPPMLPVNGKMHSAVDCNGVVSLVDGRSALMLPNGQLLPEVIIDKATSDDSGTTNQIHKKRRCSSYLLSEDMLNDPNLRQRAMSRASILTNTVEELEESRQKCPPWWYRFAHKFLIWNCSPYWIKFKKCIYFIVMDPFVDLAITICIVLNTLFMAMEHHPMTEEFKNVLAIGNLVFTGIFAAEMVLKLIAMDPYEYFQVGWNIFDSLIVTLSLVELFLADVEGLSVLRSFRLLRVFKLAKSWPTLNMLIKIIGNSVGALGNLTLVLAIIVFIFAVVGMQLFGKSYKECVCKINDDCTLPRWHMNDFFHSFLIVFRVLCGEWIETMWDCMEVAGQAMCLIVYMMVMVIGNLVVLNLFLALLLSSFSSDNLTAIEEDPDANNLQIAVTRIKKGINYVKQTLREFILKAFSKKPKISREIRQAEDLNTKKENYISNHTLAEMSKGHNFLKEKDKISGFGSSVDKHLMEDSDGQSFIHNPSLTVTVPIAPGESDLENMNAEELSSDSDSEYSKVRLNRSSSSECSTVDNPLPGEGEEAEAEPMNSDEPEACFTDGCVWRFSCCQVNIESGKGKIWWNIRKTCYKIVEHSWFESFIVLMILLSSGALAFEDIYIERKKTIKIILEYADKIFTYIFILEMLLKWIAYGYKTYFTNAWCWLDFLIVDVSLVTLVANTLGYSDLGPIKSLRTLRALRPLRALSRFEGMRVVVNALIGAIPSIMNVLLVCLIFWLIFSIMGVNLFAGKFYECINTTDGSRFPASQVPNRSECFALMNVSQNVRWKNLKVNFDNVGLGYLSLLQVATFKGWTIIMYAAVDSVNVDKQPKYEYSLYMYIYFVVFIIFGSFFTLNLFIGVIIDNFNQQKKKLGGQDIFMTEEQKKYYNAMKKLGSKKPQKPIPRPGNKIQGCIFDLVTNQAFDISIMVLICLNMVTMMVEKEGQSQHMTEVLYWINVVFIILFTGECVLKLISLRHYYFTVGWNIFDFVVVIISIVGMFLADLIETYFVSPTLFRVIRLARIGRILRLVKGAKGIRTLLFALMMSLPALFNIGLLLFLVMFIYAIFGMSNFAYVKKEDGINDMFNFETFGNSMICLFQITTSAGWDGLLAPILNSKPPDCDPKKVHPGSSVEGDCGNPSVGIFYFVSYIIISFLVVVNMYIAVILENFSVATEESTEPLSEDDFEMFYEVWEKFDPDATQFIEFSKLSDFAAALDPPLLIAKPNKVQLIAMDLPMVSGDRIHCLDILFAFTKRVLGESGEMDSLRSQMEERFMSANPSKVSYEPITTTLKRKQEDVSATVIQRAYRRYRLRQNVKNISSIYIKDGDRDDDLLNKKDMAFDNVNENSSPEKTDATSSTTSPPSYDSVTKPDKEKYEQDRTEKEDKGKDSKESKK
IC50 [1],IC50 [2],SMILES,IC50 [3]
51 nM,265 nM,"N#Cc1cc(Cl)ccc1N1CCOc2cc(S(=O)(=O)Nc3nccs3)ccc21 [Example 56, 4-(4-Chloro-2-Cyanophenyl)-N-(Thiazol-2-Yl)-3,4-Dihydro-2H-Benzo[B][1,4]Oxazine-7-Sulfonamide]",4790 nM
401 nM,2620 nM,"O=S(=O)(Nc1nccs1)c1ccc2c(c1)OCCN2c1ccc(Cl)cc1F [Example 170, 4-(4-Chloro-2-Fluorophenyl)-N-(Thiazol-2-Yl)-3,4-Dihydro-2H-Benzo[B][1,4]Oxazine-7-Sulfonamide 2,2,2-Trifluoroacetate]",> 10000 nM
186 nM,392 nM,"N#Cc1ccc(C(F)(F)F)cc1N1CCOc2cc(S(=O)(=O)Nc3nccs3)ccc21 [Example 184, 4-(2-Cyano-5-(Trifluoromethyl)Phenyl)-N-(Thiazol-2-Yl)-3,4-Dihydro-2H-Benzo[B][1,4]Oxazine-7-Sulfonamide]",3170 nM
140 nM,976 nM,"N#Cc1ccc(N2CCOc3cc(S(=O)(=O)Nc4nccs4)ccc32)c(Cl)c1 [Example 191, 4-(2-Chloro-4-Cyanophenyl)-N-(Thiazol-2-Yl)-3,4-Dihydro-2H-Benzo[B][1,4]Oxazine-7-Sulfonamide]",> 10000 nM
244 nM,936 nM,"O=S(=O)(Nc1nccs1)c1ccc2c(c1)OCCN2c1cccc(OC(F)F)c1 [Example 172, 4-(3-(Difluoromethoxy)Phenyl)-N-(Thiazol-2-Yl)-3,4-Dihydro-2H-Benzo[B][1,4]Oxazine-7-Sulfonamide 2,2,2-Trifluoroacetate]",> 10000 nM
178 nM,1490 nM,"N#Cc1cc(F)ccc1N1CCOc2cc(S(=O)(=O)Nc3nccs3)ccc21 [Example 177, 4-(2-cyano-4-fluorophenyl)-N-(thiazol-2-yl)-3,4-dihydro-2H-benzo[b][1,4]oxazine-7-sulfonamide]",> 10000 nM
202 nM,1390 nM,"N#Cc1cc(N2CCOc3cc(S(=O)(=O)Nc4nccs4)ccc32)ccc1F [Example 175, 4-(3-Cyano-4-Fluorophenyl)-N-(Thiazol-2-Yl)-3,4-Dihydro-2H-Benzo[B][1,4]Oxazine-7-Sulfonamide 2,2,2-Trifluoroacetate]",5080 nM
3640 nM,9210 nM,"N#Cc1cc(C(F)(F)F)ccc1N1CCOc2cc(S(=O)(=O)Nc3ccno3)ccc21 [Example 91, 4-(2-Cyano-4-(Trifluoromethyl)Phenyl)-N-(Isoxazol-5-Yl)-3,4-Dihydro-2H-Benzo[B][1,4]Oxazine-7-Sulfonamide]",> 10000 nM
652 nM,6150 nM,"N#Cc1ccc(N2CCOc3cc(S(=O)(=O)Nc4nccs4)ccc32)cc1OC(F)(F)F [Example 167, 4-(4-cyano-3-(trifluoromethoxy)phenyl)-N-(thiazol-2-yl)-3,4-dihydro-2H-benzo[b][1,4]oxazine-7-sulfonamide]",> 10000 nM
638 nM,5690 nM,"O=S(=O)(Nc1nccs1)c1ccc2c(c1)OCCN2c1ccc2scnc2c1 [Example 70, 4-(Benzo[D]Thiazol-5-Yl)-N-(Thiazol-2-Yl)-3,4-Dihydro-2H-Benzo[B][1,4]Oxazine-7-Sulfonamide 2,2,2-Trifluoroacetate]",> 10000 nM
36.5 nM,740 nM,"Cc1cc(C#N)ccc1N1CCOc2cc(S(=O)(=O)Nc3nccs3)ccc21 [Example 226, 4-(4-Cyano-2-Methylphenyl)-N-(Thiazol-2-Yl)-3,4-Dihydro-2H-Benzo[B][1,4]Oxazine-7-Sulfonamide]",> 10000 nM
288 nM,1650 nM,"Cc1cc(N2CCOc3cc(S(=O)(=O)Nc4nccs4)ccc32)ccc1F [Example 81, 4-(4-Fluoro-3-Methylphenyl)-N-(Thiazol-2-Yl)-3,4-Dihydro-2H-Benzo[B][1,4]Oxazine-7-Sulfonamide 2,2,2-Trifluoroacetate]",> 10000 nM
679 nM,5790 nM,"CCC1CN(c2ccc(C(F)(F)F)cc2C#N)c2ccc(S(=O)(=O)Nc3nccs3)cc2O1 (racemic) [Example 100, 4-(2-Cyano-4-(Trifluoromethyl)Phenyl)-2-Ethyl-N-(Thiazol-2-Yl)-3,4-Dihydro-2H-Benzo[B][1,4]Oxazine-7-Sulfonamide]",> 10000 nM
996 nM,3430 nM,"C[C@H]1COc2cc(S(=O)(=O)Nc3nccs3)ccc2N1c1ccc(C(F)(F)F)cc1C#N (single isomer, unassigned) [Example 98]",> 10000 nM
1660 nM,12200 nM,"CC(C)c1ccc(N2CCOc3cc(S(=O)(=O)Nc4nccs4)ccc32)cc1 [Example 112, 4-(4-Isopropylphenyl)-N-(thiazol-2-yl)-3,4-dihydro-2H-benzo[b][1,4]oxazine-7-sulfonamide]",> 10000 nM
1490 nM,4510 nM,"COc1cnccc1N1CCOc2cc(S(=O)(=O)Nc3nccs3)ccc21 [Example 158, 4-(3-methoxypyridin-4-yl)-N-(thiazol-2-yl)-3,4-dihydro-2H-benzo[b][1,4]oxazine-7-sulfonamide]",> 10000 nM
26 nM,381 nM,"O=S(=O)(Nc1cccnn1)c1ccc2c(c1)OCCN2c1ccc(C(F)(F)F)cc1C1=CCNCC1 [Example 87, N-(Pyridazin-3-Yl)-4-(2-(1,2,3,6-Tetrahydropyridin-4-Yl)-4-(Trifluoromethyl)Phenyl)-3,4-Dihydro-2H-Benzo[B][1,4]Oxazine-7-Sulfonamide]",> 10000 nM

# More lines, now with the values behind:
SMILES,IC50 [1],IC50 [2],IC50 [3]
"O=S(=O)(Nc1ncns1)c1ccc2c(c1)NCCN2c1ccc(C(F)(F)F)cc1Cl [Example 18, 1-(2-Chloro-4-(Trifluoromethyl)Phenyl)-N-(1,2,4-Thiadiazol-5-Yl)-1,2,3,4-Tetrahydroquinoxaline-6-Sulfonamide]",1040 nM,946 nM,> 10000 nM
"Cn1nccc1-c1cc(C(F)(F)F)ccc1N1CCOc2cc(S(=O)(=O)Nc3ncns3)ccc21 [Example 3, 4-(2-(1-Methyl-1H-Pyrazol-5-Yl)-4-(Trifluoromethyl)Phenyl)-N-(1,2,4-Thiadiazol-5-Yl)-3,4-Dihydro-2H-Benzo[B][1,4]Oxazine-7-Sulfonamide]",10.8 nM,57.7 nM,1870 nM
"O=S(=O)(Nc1nccs1)c1ccc2c(c1)OCCN2c1ccc(C(F)(F)F)cc1CC(O)CO (racemic) [Example 207, 4-(2-(2,3-Dihydroxypropyl)-4-(Trifluoromethyl)Phenyl)-N-(Thiazol-2-Yl)-3,4-Dihydro-2H-Benzo[B][1,4]Oxazine-7-Sulfonamide]",25 nM,86.7 nM,3110 nM
"N#Cc1cc(C(F)(F)F)ccc1N1CCOc2cc(S(=O)(=O)Nc3nccs3)cc(F)c21 [Example 218, 4-(2-Cyano-4-(Trifluoromethyl)Phenyl)-5-Fluoro-N-(Thiazol-2-Yl)-3,4-Dihydro-2H-Benzo[B][1,4]Oxazine-7-Sulfonamide]",193 nM,1990 nM,385 nM
"O=S(=O)(Nc1ccno1)c1ccc2c(c1)OCCN2c1ccc(C(F)(F)F)cc1Cl [Example 55, 4-(2-Chloro-4-(Trifluoromethyl)Phenyl)-N-(Isoxazol-5-Yl)-3,4-Dihydro-2H-Benzo[B][1,4]Oxazine-7-Sulfonamide]",2920 nM,19900 nM,> 10000 nM
"O=S(=O)(Nc1ncns1)c1ccc2c(c1)OCCN2c1ccc(C(F)(F)F)cc1Cl [Example 2, 4-(2-Chloro-4-(Trifluoromethyl)Phenyl)-N-(1,2,4-Thiadiazol-5-Yl)-3,4-Dihydro-2H-Benzo[B][1,4]Oxazine-7-Sulfonamide]",7.83 nM,38.6 nM,> 10000 nM
"COCCNc1cc(C(F)(F)F)ccc1N1CCOc2cc(S(=O)(=O)Nc3ccncn3)ccc21 [Example 48, 4-(2-((2-Methoxyethyl)Amino)-4-(Trifluoromethyl)Phenyl)-N-(Pyrimidin-4-Yl)-3,4-Dihydro-2H-Benzo[B][1,4]Oxazine-7-Sulfonamide]",28.5 nM,719 nM,> 10000 nM
"CN1CCN(c2ccc(C(F)(F)F)cc2Cl)c2ccc(S(=O)(=O)Nc3ncns3)cc21 [Example 19, 1-(2-Chloro-4-(Trifluoromethyl)Phenyl)-4-Methyl-N-(1,2,4-Thiadiazol-5-Yl)-1,2,3,4-Tetrahydroquinoxaline-6-Sulfonamide]",1180 nM,4890 nM,> 10000 nM
"N#Cc1cc(C(F)(F)F)ccc1N1CCOc2cc(S(=O)(=O)Nc3nccs3)c(Cl)cc21 [Example 212, 6-Chloro-4-(2-Cyano-4-(Trifluoromethyl)Phenyl)-N-(Thiazol-2-Yl)-3,4-Dihydro-2H-Benzo[B][1,4]Oxazine-7-Sulfonamide]",21.3 nM,373 nM,736 nM
"O=S(=O)(Nc1cc(Cl)ncn1)c1ccc2c(c1)OCCN2c1ccc(C(F)(F)F)cc1Cl [Example 9, 4-(2-Chloro-4-(Trifluoromethyl)Phenyl)-N-(6-Chloropyrimidin-4-Yl)-3,4-Dihydro-2H-Benzo[B][1,4]Oxazine-7-Sulfonamide]",876 nM,6320 nM,> 10000 nM
"O=S(=O)(Nc1ncns1)c1ccc2c(c1)OCCN2c1cccc2ncccc12 [Example 33, 4-(Quinolin-5-Yl)-N-(1,2,4-Thiadiazol-5-Yl)-3,4-Dihydro-2H-Benzo[B][1,4]Oxazine-7-Sulfonamide]",141 nM,1190 nM,> 10000 nM
